# From patent publication US9993001B2, “Herbicidal composition” (ISHIHARA SANGYO KAISHA, LTD., priority 2014, dated 2018)
# Columns and labels:
# Format in all cases: in vivo
# [1] = tested on: large crabgrass (Digitaria sanquinalis L.); test: Test Example 29: pot, soil treatment, metobromuron + indanofan; conditions: soil treatment, pot, 20th day after treatment, read-out: Growth inhibition rate of large crabgrass (%) Measured value
# Description: (§1) When the herbicidal activity in a case where two active ingredients are combined, is larger than the simple sum of the respective herbicidal activities of the two active ingredients (the expected activity), it is called a synergistic effect. The activity expected by the combination of two active ingredients can be calculated as follows (Colby S. R., “Weed”, vol. 15, p. 20-22, 1967). E=α+β−(α×β[…]) where α: growth inhibition rate when treated with x (g/ha) of herbicide X, • β: growth inhibition rate when treated with y (g/ha) of herbicide Y, • E: growth inhibition rate expected when treated with x (g/ha) of herbicide X and y (g/ha) of herbicide Y.
# (§2) On the 19th day after treatment, the state of growth of barnyardgrass was visually observed and evaluated in accordance with the following standards. The growth inhibition rate (%) [measured value] and the growth inhibition rate (%) [calculated value] calculated by the Colby's method, are shown in Table 2.
# (§3) Growth inhibition rate (%)=inhibition rate) (%) of 0 (equivalent to the non-treated area) to 100 (complete kill)
# Soil was put into a 1/300,000 ha pot, and seeds of large crabgrass (Digitaria sanquinalis L.) were sown. On the day after seeding, predetermined amounts of SC containing metobromuron as active ingredient (same as in Test Example 1) and WP containing indanofan as active ingredient were diluted with water corresponding to 1,000 L per hectare and applied for soil treatment.
# On the 20th day after treatment, the state of growth of large crabgrass was visually observed and evaluated in the same manner as in Test Example 1.
# [2] = tested on: black nightshade (Solanum nigrum L.); test: Test Example 27: pot, soil treatment, metobromuron + flufenacet; conditions: soil treatment, pot, 21st day after treatment, read-out: Growth inhibition rate of black nightshade (%) Measured value
# Description: as §1, §2, §3
# (§4) Soil was put into a 1/300,000 ha pot, and seeds of black nightshade (Solanum nigrum L.) were sown. On the day after seeding, predetermined amounts of SC containing metobromuron as active ingredient (same as in Test Example 1) and EC containing prosulfocarb as active ingredient (trade name: BOXER NYUZAI, manufactured by Syngenta) were diluted with water corresponding to 1,000 L per hectare and applied for soil treatment.
# (§5) On the 21st day after treatment, the state of growth of black nightshade was visually observed and evaluated in the same manner as in Test Example 1.
# The test was carried out in the same manner as in Test Example 26 except that EC containing prosulfocarb as active ingredient was changed to SC containing flufenacet as active ingredient (trade name: Cadou, manufactured by Bayer CropScience), to obtain the results as shown in Table 28.
# [3] = tested on: barnyardgrass (Echinochloa crus-qalli L.); test: Test Example 21: pot, soil treatment, metobromuron + prometryn; conditions: soil treatment, pot, 21st day after treatment, read-out: Growth inhibition rate of barnyardgrass (%) Measured value
# Description: as §1, §2, §3
# as §4, with “barnyardgrass (Echinochloa crus-qalli” for “black nightshade (Solanum nigrum”, “WP” for “EC”, “prometryn” for “prosulfocarb”, “Gesagard 50,” for “BOXER NYUZAI,”, “Nippon Kayaku Co., Ltd.)” for “Syngenta)”
# (§6) On the 21st day after treatment, the state of growth of barnyardgrass was visually observed and evaluated in the same manner as in Test Example 1.
# [4] = tested on: large crabgrass (Diqitaria sanquinalis L.); test: Test Example 22: pot, soil treatment, metobromuron + prometryn; conditions: Digitaria sanguinalis, soil treatment, pot, 21st day after treatment, read-out: Growth inhibition rate of large crabgrass (%) Measured value
# Description: as §1, §2, §3
# as §4, with “barnyardgrass (Echinochloa crus-qalli” for “black nightshade (Solanum nigrum”, “WP” for “EC”, “prometryn” for “prosulfocarb”, “Gesagard 50,” for “BOXER NYUZAI,”, “Nippon Kayaku Co., Ltd.)” for “Syngenta)”
# as §6
# The test was carried out in the same manner as in Test Example 21 except that barnyardgrass (Echinochloa crus-qalli L.) was changed to large crabgrass (Diqitaria sanquinalis L.), to obtain the results as shown in Table 23.
# [5] = tested on: black nightshade (Solanum nigrum L.); test: Test Example 26: pot, soil treatment, metobromuron + prosulfocarb; conditions: soil treatment, pot, 21st day after treatment, read-out: Growth inhibition rate of black nightshade (%) Measured value
# Description: as §1, §2, §3, §4, §5
# [6] = tested on: velvetleaf (Abutilon theophrasti MEDIC.); test: Test Example 13: pot, soil treatment, metobromuron + pyroxasulfone; conditions: soil treatment, pot, 12th day after treatment, read-out: Growth inhibition rate of velvetleaf (%) Measured value
# Description: as §1, §2, §3
# Soil was put into a 1/300,000 ha pot, and seeds of velvetleaf (Abutilon theophrasti MEDIC.) were sown. Prior to germination of velvetleaf, predetermined amounts of SC containing metobromuron as active ingredient (same as in Test Example 1) and WG containing pyroxasulfone as active ingredient (trade name: Sakura 850 WG, manufactured by Bayer CropScience) were diluted with water corresponding to 1,000 L per hectare and applied for soil treatment.
# On the 12th day after treatment, the state of growth of velvetleaf was visually observed and evaluated in the same manner as in Test Example 1.
# [7] = tested on: black nightshade (Solanum nigrum L.); test: Test Example 14: pot, soil treatment, metobromuron + pyroxasulfone; conditions: soil treatment, pot, 12th day after treatment, read-out: Growth inhibition rate of black nightshade (%) Measured value
# Description: as §1, §2, §3
# as §4, with “Prior to germination of black nightshade,” for “On the day after seeding,”, “WG” for “EC”, “pyroxasulfone” for “prosulfocarb”, “(same as in Test Example 13)” for “(trade name: BOXER NYUZAI, manufactured by Syngenta)”
# On the 12th day after treatment, the state of growth of black nightshade was visually observed and evaluated in the same manner as in Test Example 1.
# [8] = tested on: common lambsquarters (Chenopodium album L.); test: Test Example 30: pot, soil treatment, metobromuron + thiobencarb; conditions: soil treatment, pot, 20th day after treatment, read-out: Growth inhibition rate of common lambsquarters (%) Measured value
# Description: as §1, §2, §3
# as §4, with “common lambsquarters (Chenopodium album” for “black nightshade (Solanum nigrum”, “thiobencarb” for “prosulfocarb”, “Saturn” for “BOXER”, “KUMIAI CHEMICAL INDUSTRY Co., Ltd.)” for “Syngenta)”
# (§7) On the 20th day after treatment, the state of growth of common lambsquarters was visually observed and evaluated in the same manner as in Test Example 1.
# [9] = tested on: black nightshade (Solanum nigrum L.); test: Test Example 31: pot, soil treatment, metobromuron + thiobencarb; conditions: soil treatment, pot, 20th day after treatment, read-out: Growth inhibition rate of black nightshade (%) Measured value
# Description: as §1, §2, §3
# as §4, with “common lambsquarters (Chenopodium album” for “black nightshade (Solanum nigrum”, “thiobencarb” for “prosulfocarb”, “Saturn” for “BOXER”, “KUMIAI CHEMICAL INDUSTRY Co., Ltd.)” for “Syngenta)”
# as §7
# The test was carried out in the same manner as in Test Example 30 except that common lambsquarters (Chenopodium album L.) was changed to black nightshade (Solanum nigrum L.), to obtain the results as shown in Table 32.
smiles,measurement,setting,value
"CCC1(CC2(c3cccc(Cl)c3)CO2)C(=O)c2ccccc2C1=O (racemic) [Indanofan, (RS)-2-[2-(3-chlorophenyl)-2,3-epoxypropyl]-2-ethyl indane-1,3-dione]",inhibition at 25 g/ha,[1]; 25 g/ha,25%
same,inhibition at 37.5 g/ha,[1]; 37.5 g/ha,25%
same,inhibition at 56.3 g/ha,[1]; 56.3 g/ha,28%
"CC(C)N(C(=O)COc1nnc(C(F)(F)F)s1)c1ccc(F)cc1 [Flufenacet, 4′-fluoro-N-isopropyl-2-[5-(trifluoromethyl)-1,3,4-thiadiazol-2-yloxy] acetanilide]",inhibition at 83.35 g/ha,[2]; 83.35 g/ha,30%
same,inhibition at 125 g/ha,[2]; 125 g/ha,25%
same,inhibition at 187.5 g/ha,[2]; 187.5 g/ha,40%
"CSc1nc(NC(C)C)nc(NC(C)C)n1 [Prometryn, N^2,N^4-diisopropyl-6-methylthio-1,3,5-triazine-2,4-diamine]",inhibition at 300 g/ha,[3]; 300 g/ha,15%
same,inhibition at 400 g/ha,[3]; 400 g/ha,38%
same,inhibition at 300 g/ha,[4]; 300 g/ha,62%
same,inhibition at 400 g/ha,[4]; 400 g/ha,76%
"CCCN(CCC)C(=O)SCc1ccccc1 [Prosulfocarb, S-benzyl dipropyl(thiocarbamate)]",inhibition at 653.4 g/ha,[5]; 653.4 g/ha,50%
same,inhibition at 980 g/ha,[5]; 980 g/ha,50%
same,inhibition at 1470 g/ha,[5]; 1470 g/ha,50%
"Cn1nc(C(F)(F)F)c(CS(=O)(=O)C2=NOC(C)(C)C2)c1OC(F)F [Pyroxasulfone, 3-[5-(difluoromethoxy)-1-methyl-3-(trifluoromethyl)pyrazol-4-ylmethylsulfonyl]-4,5-dihydro-5,5-dimethyl-1,2-oxazole]",inhibition at 25 g/ha,[6]; 25 g/ha,25%
same,inhibition at 33 g/ha,[6]; 33 g/ha,28%
same,inhibition at 50 g/ha,[6]; 50 g/ha,38%
same,inhibition at 25 g/ha,[7]; 25 g/ha,50%
same,inhibition at 33 g/ha,[7]; 33 g/ha,64%
same,inhibition at 50 g/ha,[7]; 50 g/ha,73%
"CCN(CC)C(=O)SCc1ccc(Cl)cc1 [Thiobencarb, S-4-chlorobenzyl diethyl(thiocarbamate)]",inhibition at 296.3 g/ha,[8]; 296.3 g/ha,0%
same,inhibition at 444.4 g/ha,[8]; 444.4 g/ha,0%
same,inhibition at 666.7 g/ha,[8]; 666.7 g/ha,0%
same,inhibition at 296.3 g/ha,[9]; 296.3 g/ha,25%
same,inhibition at 444.4 g/ha,[9]; 444.4 g/ha,23%
same,inhibition at 666.7 g/ha,[9]; 666.7 g/ha,20%
